Reference: patent US20250361231A1, “FUSED RING COMPOUNDS WITH SULFUR-CONTAINING SUBSTITUENTS, PREPARATION METHODS, INSECTICIDE COMPOSITIONS, AND APPLICATION” (priority 2022, published 2025)

Columns and labels:
Type in all cases: in vivo
Plutella xylostella = test: Activity against Plutella xylostella, artificial diet in 24-well plates, L2 larvae; settings: for percent effect (mortality or growth inhibition) at 100 ppm: Plutella xylostella, 120 h, application rate 100 ppm, 5 days after infestation, read-out: effect in at least one of the two categories (mortality or growth inhibition); for effect: application rate 4 ppm
Method: (§1) 24-well microtiter plates with artificial diet were treated with agueous test solutions prepared from 10,000 ppm DMSO stock solutions by pipetting. After drying, the plates were infested with L2 larvae (10 to 15 per well). The samples were assessed for mortality and growth inhibition in comparison to untreated samples 5 days after infestation.

Laphygma exigua = test: Activity against Laphygma exigua, artificial diet in 24-well plates, L2 larvae; settings: application rate 4 ppm
Method: as §1

Aphis craccivora Koch = test: Activity against Aphis craccivora Koch, pea seedling roots in test solution; settings: for mortality at 100 ppm: Aphis craccivora, 144 h, test rate 100 ppm, 6 days after placing seedlings into test solutions; for effect: application rate 4 ppm
Method: (§2) Roots of pea seedlings infested with an aphid population of mixed ages were placed directly into agueous test solutions prepared from […] stock solutions. The samples were assessed for mortality 6 days after placing seedlings into test solutions.

Chilo suppressalis = test: Activity against Chilo suppressalis, soaked rice seedlings, L2 larvae; settings: application rate 5 ppm, after 96 hours, read-out: effect (mortality rates)
Method: Take 5-6 rice seedlings, each 3-4 cm in height, soak them thoroughly in the prepared solution, After drying, the plates were infested with L2 larvae (10 per well). Keep them in an observation room for rearing and observation. Use 0.1% warm water as a blank control. Incubate them in an observation room at 25 to 27° C. After 96 hours, assess the samples based on mortality rates

Myzus persicae = test: Activity against Myzus persicae (green peach aphid), pea seedling roots in test solution; settings: 144 h, test rate 100 ppm, 6 days after placing seedlings into test solutions
Method: (§3) This test case is used to illustrate the insecticidal activity inhibition (%) of compounds with the structure shown in formula (I) (dosage of 100 ppm).
as §2

Leucania separate = test: Activity against Leucania separate, sprayed maize sprouts, L2 larvae; settings: 96 h; application rate 100 ppm; 4 days after infestation; read-out: effect in at least one of the two categories (mortality or growth inhibition)
Method: as §3
as §1, with “Maize sprouts placed onto an agar layer in 24-well” for “24-well”, “plates” for “plates with artificial diet”, “spraying.” for “pipetting.”, “(6” for “(10”, “10” for “15”, “4” for “5”

Nilaparvata lugens = test: Activity against Nilaparvata lugens, sprayed leaf discs, adults; settings: for mortality at 100 ppm: Nilaparvata lugens, foliar, 144 h, test rate 100 ppm, 6 days after incubation; for effect: application rate 45 ppm
Method: Cotton leaf discs were placed on agar in 24-well microtiter plates and sprayed with agueous test solutions prepared from 10,000 ppm DMSO stock solutions. After drying the leaf discs were infested with adult Nilaparvata lugens. The samples were checked for mortality 6 days after incubation.

CCS(=O)(=O)c1cc2sc(C3CC3)nc2nc1-c1nc2cc(C(F)(F)F)cnc2n1C [Compound I-109]
percent effect (mortality or growth inhibition) at 100 ppm (Plutella xylostella): ≥ 90%
effect (Plutella xylostella): 100%
effect (Laphygma exigua): 100%
mortality at 100 ppm (Aphis craccivora Koch): ≥ 90%
effect (Aphis craccivora Koch): 100%
mortality at 5 ppm (Chilo suppressalis): 100%
mortality at 100 ppm (Myzus persicae): ≥ 90%
percent effect (mortality or growth inhibition) at 100 ppm (Leucania separate): ≥ 90%
mortality at 100 ppm (Nilaparvata lugens): ≥ 90%
effect (Nilaparvata lugens): 95%

CCS(=O)(=O)c1cc2nc(C3CC3)sc2nc1-c1nc2cc(C(F)(F)F)cnc2n1C [Compound I-73]
percent effect (mortality or growth inhibition) at 100 ppm (Plutella xylostella): ≥ 90%
effect (Plutella xylostella): 100%
effect (Laphygma exigua): 100%
mortality at 100 ppm (Aphis craccivora Koch): ≥ 90%
effect (Aphis craccivora Koch): 100%
mortality at 5 ppm (Chilo suppressalis): 100%
mortality at 100 ppm (Myzus persicae): ≥ 90%
percent effect (mortality or growth inhibition) at 100 ppm (Leucania separate): ≥ 90%
mortality at 100 ppm (Nilaparvata lugens): ≥ 90%
effect (Nilaparvata lugens): 95%

CCS(=O)(=O)c1cc2nc(C3CC3)n(C)c2nc1-c1nc2cc(C(F)(F)F)cnc2n1C [Compound I-1]
percent effect (mortality or growth inhibition) at 100 ppm (Plutella xylostella): ≥ 90%
mortality at 100 ppm (Aphis craccivora Koch): ≥ 90%
effect (Aphis craccivora Koch): 100%
mortality at 100 ppm (Myzus persicae): ≥ 90%
percent effect (mortality or growth inhibition) at 100 ppm (Leucania separate): ≥ 90%
mortality at 100 ppm (Nilaparvata lugens): ≥ 90%

CCS(=O)(=O)c1cc2nc(C(F)(F)F)sc2nc1-c1nc2cc(C(F)(F)F)cnc2n1C [Compound I-100]
effect (Aphis craccivora Koch): 100%
effect (Nilaparvata lugens): 95%

CCS(=O)(=O)c1cc2nc(C)n(C)c2nc1-c1nc2cc(C(F)(F)F)cnc2n1C [Compound I-2]
percent effect (mortality or growth inhibition) at 100 ppm (Plutella xylostella): ≥ 90%
mortality at 100 ppm (Aphis craccivora Koch): ≥ 90%
mortality at 100 ppm (Myzus persicae): ≥ 90%
percent effect (mortality or growth inhibition) at 100 ppm (Leucania separate): ≥ 90%
mortality at 100 ppm (Nilaparvata lugens): ≥ 90%
